In patent US12369582B2, “Pyridyloxyacetic acid compound and use of same” (SUMITOMO CHEMICAL COMPANY, LIMITED, priority 2019, dated 2025) one finds Efficacy data, which are given here for 2 molecules.

The test concerns Phytophthora capsici. The test is described as follows: Titer plate growth inhibition test on Phytophthora capsici zoospores in potato dextrose broth. It counts as cell-based. Particulars: final concentration 100 ppm; cultured at 27° C. for 3 days; absorbance at 600 nm vs non-treated section. How it is done:
Next, test examples are shown. A non-treated in Test Example 1 means a section in which the same operation as in a treated section is performed except that Compound A is not used. After dispensing 1 μL of a dimethyl sulfoxide solution containing a predetermined concentration of Compound A into wells of a titer plate (96 wells), 150 μL of a potato dextrose broth containing zoospores of Phytophthora capsici was dispensed, and the mixture was prepared so as to have a final concentration of Compound A of 100 ppm and defined as a treated section. In addition, a non-treated section was prepared in other wells. The plate was cultured at 27° C. for 3 days to proliferate Phytophthora capsici […], and then the absorbance at 600 nm of each well of the titer plate was measured and defined as the growth degree of Phytophthora capsici. Based on the growth degree, the efficacy was calculated using “Formula 1”. Efficacy(%)=100×(X−Y)/X “Formula 1” • X: Growth degree of bacteria in non-treated section • Y: Growth degree of bacteria in treated section A test was performed according to Test Example 1 using sodium salt monohydrate of Compound A in place of Compound A. As a result, the efficacy was 90%. A test was performed according to Test Example 1 using Compound B in place of Compound A. As a result, the efficacy was 64%.

`O=C(O)COc1ncccc1Oc1ccc(F)cc1Cl` [Compound A, 2-{[3-(2-Chloro-4-fluorophenoxy)pyridin-2-yl]oxy}acetic acid] gave an Efficacy of 100%. Under `CCOC(=O)COc1ncccc1Oc1ccc(F)cc1Cl` [Compound B, 2-{[3-(2-chloro-4-fluorophenoxy)pyridin-2-yl]oxy}acetic acid ethyl ester] stands 64%.
